Source: paper PMC5292237 (Bioorganic & medicinal chemistry, 2016)

Legend:
LSD1 = conditions: cited from earlier work
human recombinant LSD1 = human recombinant LSD1 (Homo sapiens, UniProt O60341); assay: Labeling of human recombinant LSD1 after pre-treatment with LSD1 inhibitors; type: biochemical

| SMILES | reported potency over LSD1 (LSD1) | effect of inhibitor pre-treatment on LSD1 labeling by probe 17 (human recombinant LSD1; compound 12 1 mM or TCP 1.5 mM, 30 min pre-incubation, probe 17 40 µM, 2 min UV) | effect of inhibitor pre-treatment on LSD1 labeling by probe 18 (human recombinant LSD1; compound 12 pre-incubation 30 min, probe 18 10 µM, 2 min) |
| --- | --- | --- | --- |
| N[C@@H]1C[C@H]1c1ccccc1 (relative stereo) [TCP, trans-2-phenylcyclopropyl-1-amine] | 20 to 400 µM | – | – |
| C=Cc1ccc(C(=O)Nc2ccc([C@@H]3C[C@H]3N)cc2)cc1.Cl (relative stereo) [compound 12, N-(4-(trans-2-aminocyclopropyl)phenyl)-4-vinyl benzamide hydrochloride] | – | no reduction in protein labeling | no clear difference |
